“And” between values parts separate entries of the source, which are not always exact repeats. Identical values can stand only once.

The target in test [1] is T1, ALKBH2 (Homo sapiens, UniProt Q6NS38).
T1 construct: made in house; host or cells: E. coli BL21 (DE3)
T1 sequence (Q6NS38 56-258): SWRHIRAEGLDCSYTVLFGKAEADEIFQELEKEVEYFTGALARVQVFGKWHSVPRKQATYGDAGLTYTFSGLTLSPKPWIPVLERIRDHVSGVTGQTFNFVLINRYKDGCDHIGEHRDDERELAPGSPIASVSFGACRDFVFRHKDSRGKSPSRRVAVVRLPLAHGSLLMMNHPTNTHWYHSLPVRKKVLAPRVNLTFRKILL
The test is described as follows: Differential scanning fluorimetry (DSF)-based binding assay, ALKBH2. The settings on record: DSF, 100 μM compound, 2 μM protein, 50 μM MnCl2; read-out: Tm shift (ALKBH2). The method, then: (§1) Superdex-200 column (GE Healthcare) pre-equilibrated with 20 mM HEPES, pH 7.5, 300 mM NaCl, 10% (v/v) glycerol, 0.5 mM TCEP. […]
(§2) Differential scanning fluorimetry (DSF)-based binding assay
(§3) DSF-based binding assay was performed using a MiniOpticon™ Real-Time PCR Detection System (Bio-Rad), monitoring protein unfolding using SYPRO orange (Invitrogen) according to the reported method.[16] FAM (492 nm) and ROX (610 nm) filters were used for excitation and emission respectively. Reaction mixes contained 2 μM protein, 50 μM MnCl2, 100 μM compounds, 5x SYPRO orange in a final volume of 50 μl. Reagents were prepared in 50mM HEPES buffer, pH 7.5 except metals, which were dissolved as 100 mM stocks in 20 mM HCl, then further diluted in MilliQ water. Compounds tested were prepared in 100% DMSO and added such that the final concentration of DMSO was not more than 1% v/v of assay […]
(§4) mix. Fluorescence readings were taken every 1°C in the range 25-95°C, with the temperature increased linearly by 1°C min -1. The software provided was used to perform global minimum subtraction. The inflection point, representing Tm, was calculated by fitting the Boltzmann equation to the sigmoidal curves obtained; data were processed using GraphPad Prism 6.0™.
(§5) The Tm shift caused by the addition of small molecules/ fragments was determined by subtraction of the “reference” Tm (protein incubated with metal and 1% v/v DMSO) from the Tm obtained in the presence of the compound. The assay was performed in triplicate for each inhibitor, with standard deviations typically < 1°C. […]
(In DSF a fluorescence change marks the thermal transition of the protein.)

Test [2] has as its target T1, ALKBH2. Description: HPLC-based inhibition assay for ALKBH2, m1A-ssDNA substrate. Format: biochemical. The method, then: HPLC-based inhibition assays for AlkB and ALKBH2
The assay was modified from previously reported method.[18] A 15-mer m1A-ssDNA substrate with the sequence 5’-AAAGCAG(m1A)ATTCGAA-3 ’ (Yale University, W.M.
Keck Foundation Biotechnology Resource Laboratory) was used in this inhibition assay. The assay was performed in triplicate for each inhibitor, in a final reaction volume of 25 µL.
Reaction consisted of AlkB (1 µM) or ALKBH2 (2 µM), 2OG (50 µM), (NH4)2Fe(SO4)2·6H2O (50 µM), L-ascorbate (2 mM), m1A-ssDNA substrate (10 µM), in 50 mM HEPES buffer, pH 7.5, and inhibitor at various concentrations (final DMSO concentration not more than 1% v/v of assay mix). The reaction was incubated at 4°C for 10 min, before analysis on a bio-inert HPLC system. The m1A-ssDNA substrate and the corresponding demethylated product were separated using a Dionex DNAPac PA200 anion-exchange column (8 µm, […]) with a gradient of 98% solvent A (50 mM sodium citrate buffer, pH 5.5) to 65% solvent B (50 mM sodium citrate buffer, pH 5.5 with 1.25 M sodium chloride) over 18 min, at a flow rate of 1 mL/min at 40°C. The UV detection wavelength was set at 266 nm. The percentage inhibition was estimated based on the peak areas of the m1A-ssDNA substrate and the corresponding demethylated product. For IC50 determination, eight different concentrations of inhibitors were used (0, 1, 3, 10, 30, 100, 300, […]
different inhibitor concentrations, using nonlinear regression, with normalized dose-response fit on GraphPad Prism 6.0™. […]

Test [3] addresses T2, AlkB (Escherichia coli, UniProt P05050).
T2 construct: made in house; host or cells: E. coli BL21 (DE3) Rosetta T1R
Description: Differential scanning fluorimetry (DSF)-based binding assay, AlkB. The settings on record: 100 μM compound, 2 μM protein, 50 μM MnCl2, read-out: Tm shift (AlkB). As to the method: as §1, §2, §3, §4, §5

The target of test [4] is T3, ALKBH3 (Homo sapiens, UniProt Q96Q83).
T3 construct: Human ALKBH3 (encompassing residues 1- 286); purchased ProSpec-Tany Technogene Ltd, Israel
T3 sequence (Q96Q83 1-286): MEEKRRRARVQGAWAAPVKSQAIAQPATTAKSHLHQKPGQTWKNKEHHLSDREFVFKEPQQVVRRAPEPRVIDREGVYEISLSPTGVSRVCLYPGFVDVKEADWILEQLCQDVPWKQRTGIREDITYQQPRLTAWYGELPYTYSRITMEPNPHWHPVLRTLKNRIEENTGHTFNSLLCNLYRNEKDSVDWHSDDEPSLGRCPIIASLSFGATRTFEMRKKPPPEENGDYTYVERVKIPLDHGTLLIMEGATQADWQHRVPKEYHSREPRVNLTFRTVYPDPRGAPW
The test is described as follows: Differential scanning fluorimetry (DSF)-based binding assay, ALKBH3. The conditions noted are these: DSF, 100 μM compound, 2 μM protein, 50 μM MnCl2; read-out: Tm shift (ALKBH3). As to the method:
as §1, §2, §3, §4, §5

Test [5] deals with T4, ALKBH5 (Homo sapiens, UniProt Q6P6C2).
T4 construct: pNIC28-Bsa4 ALKBH5 (encompassing residues 66-292); made in house; host or cells: E. coli BL21 (DE3) Rosetta T1R
The test is described as follows: Differential scanning fluorimetry (DSF)-based binding assay, ALKBH5. The settings on record: 100 μM compound, 2 μM protein, 50 μM MnCl2, read-out: Tm shift (ALKBH5). The method, then:
as §1, §2
DSF-based binding assay was performed using a MiniOpticon™ Real-Time PCR Detection System (Bio-Rad), monitoring protein unfolding using SYPRO orange (Invitrogen) according […]
to the reported method.[16] […]
and emission respectively. Reaction mixes contained 2 μM protein, 50 μM MnCl2, 100 μM […]
Reagents were prepared in 50mM
HEPES buffer, pH 7.5 except metals, which were dissolved as 100 mM stocks in 20 mM HCl, then further diluted in MilliQ water. Compounds tested were prepared in 100% DMSO and added such that the final concentration of DMSO was not more than 1% v/v of assay […]
increased linearly by 1°C min -1. The software provided was used to perform global minimum subtraction. The inflection point, representing Tm, was calculated by fitting the Boltzmann equation to the sigmoidal curves obtained; data were processed using GraphPad Prism 6.0™.
The Tm shift caused by the addition of small molecules/ fragments was determined by subtraction of the “reference” Tm (protein incubated with metal and 1% v/v DMSO) from the Tm obtained in the presence of the compound. […]

T4 sequence (Q6P6C2 66-292): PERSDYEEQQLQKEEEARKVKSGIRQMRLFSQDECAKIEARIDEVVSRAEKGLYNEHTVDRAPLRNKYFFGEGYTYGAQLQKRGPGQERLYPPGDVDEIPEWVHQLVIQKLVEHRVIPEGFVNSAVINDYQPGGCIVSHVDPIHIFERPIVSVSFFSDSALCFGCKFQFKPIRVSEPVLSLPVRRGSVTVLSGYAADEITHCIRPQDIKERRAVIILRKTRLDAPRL
T2 sequence (P05050 12-216): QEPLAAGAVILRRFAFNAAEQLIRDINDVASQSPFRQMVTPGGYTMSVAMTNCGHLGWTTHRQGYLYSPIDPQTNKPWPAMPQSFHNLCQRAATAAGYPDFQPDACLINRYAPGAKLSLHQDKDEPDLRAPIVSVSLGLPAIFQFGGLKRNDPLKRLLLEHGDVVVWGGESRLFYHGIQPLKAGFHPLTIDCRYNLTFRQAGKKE

With `O=C(O)/C=C/C(=O)NNC(=O)c1cnccc1Cc1ccccc1` [Compound 12], the ΔTm at 100 µM came to 4.9 °C in test [1], 4.5 °C in test [3], 3.2 °C in test [4] and 2.7 °C in test [5]. Also, in test [2], inhibition was half-maximal at 25.9 µM (IC50).

Take `O=C(O)/C=C/C(=O)NNC(=O)c1cccnc1` [Compound 21]: the ΔTm at 100 µM in test [1] was found to be 2 °C; in test [3], 1.8 °C; in test [4], 2.5 °C; in test [5], 2.1 °C. The IC50 in test [2] was 152 µM and > 100 µM.

As to `O=C(O)C=CC(=O)NNC(=O)c1cc(Cc2ccccc2)ccn1` [Compound 22], the ΔTm at 100 µM in test [1] is 3.7 °C; in test [3], 3.2 °C; in test [4], 3.5 °C; in test [5], 2.8 °C. This compound also gave a half-maximal inhibitory concentration (IC50) in test [2] of 39.9 µM.

As to `O=C(O)/C=C/C(=O)NNC(=O)c1ccccn1` [Compound 23], the ΔTm at 100 µM in test [1] was 2.3 °C; in test [3] it was 1.5 °C; in test [4], 2 °C; in test [5], 2.1 °C. In test [2], this compound gave an IC50 of 127 µM.

A word on the IC50: it is the point on the concentration scale where inhibition reaches its midpoint. Lower therefore signals greater potency.
